Measured values: patent US10494343B2, “Organic compound, near-infrared fluorescent constant medium containing same, and method for nano-granulating constant medium” (COLLEGE OF MEDICINE POCHON CHA UNIV. INDUSTRY—ACADEMIC …, priority 2015, dated 2019)

assay: Test Example 1: optical properties of contrast medium according to Preparation Example 2; type: physicochemical; design: unit not given here; settings: conventional contrast medium, solvent not stated
Protocol: Contrast media were prepared by dissolving compound H per se according to Example 8 in various organic solvents without manufacturing core-shell nanoparticles.
Test Example 1—Evaluation on Optical Properties of Contrast Medium According to Preparation Example 2
The absorption intensity, absorption wavelength, emission wavelength, and quantum yield (ϕf) of the contrast media prepared in Preparation Example 2 are shown in the Table 2.

| Molecule | quantum efficiency (χf) |
| --- | --- |
| CC1(C)C(/C=C/C=C/C=C/C=C2\N(CCCCS(=O)(=O)O)c3ccc4ccccc4c3C2(C)C)=[N+](CCCCS(=O)(=O)[O-])c2ccc3ccccc3c21 [indocyanine green] | 2.58 |

assay: Absorption/emission wavelength of the compounds (Table 1); type: physicochemical; settings: DMSO

| Molecule | Absorption wavelength [nm] | Emission wavelength [nm] |
| --- | --- | --- |
| CCN1/C(=C/C=C2\CC(C(C)(C)C(=O)OC)CC(/C=C/C3=[N+](CC)c4ccc5cc(OC)ccc5c4C3(C)C)=C2Sc2ccc(C(=O)[O-])cc2)C(C)(C)c2c1ccc1cc(OC)ccc21 (stereo not shown) [Compound H, 4-((E)-6-((E)-2-(3-ethyl-7-methoxy-1,1-dimethyl-1H-benzo[e]indol-2(3H)-ylidene)ethylidene)-2-((E)-2-(3-ethyl-7-methoxy-1,1-dimethyl-1H-benzo[e]indolium-2-yl)vinyl)-4-(1-methoxy-2-methyl-1-oxopropan-2-yl)cyclohex-1-enylthio)benzoate] | 857 | 900 |
| CCN1/C(=C/C=C2\CC(C(C)(C)C(=O)OC)CC(/C=C/C3=[N+](CC)c4ccc5cc(S(=O)(=O)[O-])ccc5c4C3(C)C)=C2Sc2ccc(C(=O)O)cc2)C(C)(C)c2c1ccc1cc(S(=O)(=O)O)ccc21 (stereo not shown) [Compound G, 2-((E)-2-((E)-2-(4-carboxyphenylthio)-3-((E)-2-(3-ethyl-1,1-dimethyl-7-sulfo-1H-benzo[e]indol-2(3H)-ylidene)ethylidene)-5-(1-methoxy-2-methyl-1-oxopropan-2-yl)cyclohex-1-enyl)vinyl)-3-ethyl-1,1-dimethyl-1H-benzo[e]indolium-7-sulfonate] | 849 | 883 |
| CCN1/C(=C/C=C2\CC(C(C)(C)C(=O)OC)CC(/C=C/C3=[N+](CC)c4ccc5cc(OC)ccc5c4C3(C)C)=C2Sc2ccc(C(=O)NCCN)cc2)C(C)(C)c2c1ccc1cc(OC)ccc21.[I-] (stereo not shown) [Compound I, 2-((E)-2-((E)-2-(4-(2-aminoethylcarbamoyl)phenylthio)-3-((E)-2-(3-ethyl-7-methoxy-1,1-dimethyl-1H-benzo[e]indol-2(3H)-ylidene)ethylidene)-5-(1-methoxy-2-methyl-1-oxopropan-2-yl)cyclohex-1-enyl)vinyl)-3-ethyl-7-methoxy-1,1-dimethyl-1H-benzo[e]indolium iodide] | 857 | 889 |
| CCN1/C(=C/C=C2\CC(c3ccc(C(=O)OC)cc3)CC(/C=C/C3=[N+](CC)c4ccc5cc(OC)ccc5c4C3(C)C)=C2Cl)C(C)(C)c2c1ccc1cc(OC)ccc21.[I-] (stereo not shown) [C, 2-((E)-2-((E)-2-chloro-3-((E)-2-(3-ethyl-7-methoxy-1,1-dimethyl-1H-benzo[e]indol-2(3H)-ylidene)ethylidene)-5-(4-(methoxycarbonyl)phenyl)cyclohex-1-enyl)vinyl)-3-ethyl-7-methoxy-1,1-dimethyl-1H-benzo[e]indolium iodide] | 843 | 876 |
| CCN1/C(=C/C=C2\CC(C(C)(C)C(=O)OC)CC(/C=C/C3=[N+](CC)c4ccc5cc(OC)ccc5c4C3(C)C)=C2Cl)C(C)(C)c2c1ccc1cc(OC)ccc21.[I-] (stereo not shown) [Compound F, 2-((E)-2-((E)-2-chloro-3-((E)-2-(3-ethyl-7-methoxy-1,1-dimethyl-1H-benzo[e]indol-2(3H)-ylidene)ethylidene)-5-(1-methoxy-2-methyl-1-oxopropan-2-yl)cyclohex-1-enyl)vinyl)-3-ethyl-7-methoxy-1,1-dimethyl-1H-benzo[e]indolium iodide] | 843 | 881 |
| CCN1/C(=C/C=C2\CC(c3ccc(C(=O)OC)cc3)CC(/C=C/C3=[N+](CC)c4ccc5cc(S(=O)(=O)O)ccc5c4C3(C)C)=C2Cl)C(C)(C)c2c1ccc1cc(S(=O)(=O)O)ccc21 (stereo not shown) [Compound A, 2-((E)-2-((E)-2-chloro-3-((E)-2-(3-ethyl-1,1-dimethyl-7-sulfo-1H-benzo[e]indo-1-2(3H)-ylidene)ethylidene)-5-(4-(methoxycarbonyl)phenyl)cyclohex-1-enyl)vinyl)-3-ethyl-1,1-dimethyl-1H-benzo[e]indolium-7-sulfonate] | 833 | 865 |
| CCN1/C(=C/C=C2\CC(c3ccc(C(=O)OC)cc3)CC(/C=C/C3=[N+](CC)c4ccc5cc(Br)ccc5c4C3(C)C)=C2Cl)C(C)(C)c2c1ccc1cc(Br)ccc21.[I-] (stereo not shown) [Compound B, 7-bromo-2-((E)-2-((E)-3-((E)-2-(7-bromo-3-ethyl-1,1-dimethyl-1H-benzo[e]indol-2(3H)-ylidene)ethylidene)-2-chloro-5-(4-(methoxycarbonyl)phenyl)cyclohex-1-enyl)vinyl)-3-ethyl-1,1-dimethyl-1H-benzo[e]indolium iodide] | 831 | 863 |
| CCN1/C(=C/C=C2\CC(C(C)(C)C(=O)OC)CC(/C=C/C3=[N+](CC)c4ccc5cc(S(=O)(=O)O)ccc5c4C3(C)C)=C2Cl)C(C)(C)c2c1ccc1cc(S(=O)(=O)O)ccc21 (stereo not shown) [Compound D, 2-((E)-2-((E)-2-chloro-3-((E)-2-(3-ethyl-1,1-dimethyl-7-sulfo-1H-benzo[e]indol-2(3H)-ylidene)ethylidene)-5-(1-methoxy-2-methyl-1-oxopropan-2-yl)cyclohex-1-enyl)vinyl)-3-ethyl-1,1-dimethyl-1H-benzo[e]indolium-7-sulfonate] | 833 | 861 |
| CCN1/C(=C/C=C2\CC(C(C)(C)C(=O)OC)CC(/C=C/C3=[N+](CC)c4ccc5cc(Br)ccc5c4C3(C)C)=C2Cl)C(C)(C)c2c1ccc1cc(Br)ccc21.[I-] (stereo not shown) [Compound E, 7-bromo-2-((E)-2-((E)-3-((E)-2-(7-bromo-3-ethyl-1,1-dimethyl-1H-benzo[e]indol-2(3H)-ylidene)ethylidene)-2-chloro-5-(1-methoxy-2-methyl-1-oxopropan-2-yl)cyclohex-1-enyl)vinyl)-3-ethyl-1,1-dimethyl-1H-benzo[e]indolium iodide] | 833 | 865 |

Continued, values first:

| Absorption wavelength [nm] | Emission wavelength [nm] | Molecule |
| --- | --- | --- |
| 857 | 896 | CCN1/C(=C/C=C2\CC(C(C)(C)C)CC(/C=C/C3=[N+](CC)c4ccc5cc(OC)ccc5c4C3(C)C)=C2Sc2ccc(C(=O)NCCN)cc2)C(C)(C)c2c1ccc1cc(OC)ccc21.[I-] (stereo not shown) [Compound L, 2-((E)-2-((E)-2-(4-(2-aminoethylcarbamoyl)phenylthio)-5-tert-butyl-3-((E)-2-(3-ethyl-7-methoxy-1,1-dimethyl-1H-benzo[e]indol-2(3H)-ylidene)ethylidene)cyclohex-1-enyl)vinyl)-3-ethyl-7-methoxy-1,1-dimethyl-1H-benzo[e]indolium iodide] |
| 857 | 901 | CCN1/C(=C/C=C2\CCCC(/C=C/C3=[N+](CC)c4ccc5cc(OC)ccc5c4C3(C)C)=C2Sc2ccc(C(=O)NCCN)cc2)C(C)(C)c2c1ccc1cc(OC)ccc21.[I-] [Compound K, 2-((E)-2-((E)-2-(4-(2-aminoethylcarbamoyl)phenylthio)-3-((E)-2-(3-ethyl-7-methoxy-1,1-dimethyl-1H-benzo[e]indol-2(3H)-ylidene)ethylidene)cyclohex-1-enyl)vinyl)-3-ethyl-7-methoxy-1,1-dimethyl-1H-benzo[e]indolium iodide] |
| 856 | 905 | 3-ethyl-2-((E)-2-((E)-3-((E)-2-(3-ethyl-7-methoxy-1,1-dimethyl-1H-benzo[e]indol-2(3H)-ylidene)ethylidene)-2-(4-(2-isothiocyantoethylcarbamoyl)phenylthio)-5-(1-methoxy-2-methyl-1-oxopropan-2-yl)cyclohex-1-enyl) vinyl)-7-methoxy-1,1-dimethyl-1H-benzo[e]indolium iodide [Compound J] |
